pIC50: −log10 of the molar value. Read-outs that look alike come from different tables or passages of the source.
How the values were obtained:
[1] = tested on: G-quadruplex in promoter region of the c-myc gene (NHE III1 segment); assay: Dual luciferase analysis with plasmid pGL4.10-myc (luc2) in HGC-27 cells; assay type: cell-based, human; details: for inhibition at 50 µM / activity at 50 µM: Homo sapiens; for inhibition at 50 µM: HGC-27, text summary of tab. 5 (50 μmol·l^−1), read-out: inhibition of expression of firefly luciferase as compared to control; for activity at 50 µM: read-out: luciferase expression relative to control (control = 100%); for Quantification of expression relative to control (%): control = 100%
Excerpt: A dual luciferase analysis was used to determine the degree of stabilization of G-quadruplex in a promoter region of the c-myc gene on cellular level. Stabilization of G-quadruplex is expressed as the ratio of expression of two luciferases (firefly and Renilla) from the co-transfected vectors pGL4.10-myc (luc2) and pRL-TK (Renilla) into a cell line HGC-27 expressing c-myc protein. Expression of the reporter gene (firefly luciferase) from pGL4.10-myc vector is controlled by the c-myc regulatory region of a length of 860 by (in the range from −306 to +554). The inserted sequence contains NHE III1 segment which forms G-quadruplex [Yang, D. et al. (2010) Future Med Chem., 2, 619], and is responsible for as much as 90% of the transcriptional activity of the c-myc gene.
Level of expression of firefly luciferase reporter gene corresponds to promoter activity of c-myc and thus to the degree of stabilization of the G-quadruplex. The signal is normalized to Renilla luciferase expression from pRL-TK vector under the control of a constitutive viral thymidine kinase (HSV-TK) promoter. The amount of Renilla luciferase expression serves as an internal control for normalization of firefly signal on transfection efficiency in the sample. Plasmids pGL4.10-myc (luc2) and pRL-TK were propagated in Escherichia coli (DH5α strain) and purified using the Qiagen Plasmid Mini and Midi kits. Cells were cultured under standard conditions and in exponential growth phase were seeded into a white 96-well microtiter plates. Transfection was carried out using a transfection reagent X-tremeGENE HP DNA in OptiMEM media for two hours. The ratio of reporter and control vector was 1:1 and the ratio of transfection reagent to the total amount of DNA was 1:1. Two hours after transfection helquats were added in a concentration of 50 μmol·l^−1. Quantity of firefly and Renilla luciferases in the samples was determined 24 hours after transfection. Dual luciferase analysis was performed using a commercially available kit (Promega, cat. No. E1960) according to manufacturer's instructions. Luminescence was measured using a luminometer EnSpire Alpha Plate Reader. The data obtained were normalized to the Renilla luciferase signal and then the values were related to control.

CCRF-CEM = assay: XTT cytotoxicity/proliferation assay, CCRF-CEM; assay type: cell-based
Method: To assess the antiproliferative effects of the tested substances in vitro, tumor cell line CCRF-CEM derived from acute lymphoblastic leukemia and normal (healthy) HUVEC endothelial cells from umbilical vein were used. Both of these cell lines were cultured under optimal conditions for their growth in the appropriate medium in plastic bottles or plastic Petri dishes of various sizes (TPP, BD Biosciences) at 37° C., 5% CO2 and 95% humidity. HUVEC cells were purchased from BD Biosciences. CCRF-CEM cell line was obtained from ATCC/LGC Standards (American Type Cell Collection).
Suspension cell line CCRF-CEM is a continuous in vitro culture of acute lymphoblastic leukemia. Cell line CCRF-CEM was grown in RPMI 1640 medium (Sigma-Aldrich, cat. No. R8758) supplemented with 2 mmol·l^−1 glutamine (Invitrogen, cat. No. 35050-038), 10% fetal bovine serum (FBS; Sigma-Aldrich, cat. No. F9665), 100 IU/ml penicillin, 100 μg/ml streptomycin (Sigma-Aldrich, cat. No. P0781). Passaging was carried out 2-3 times a week. Population doubling time of CCRF-CEM cells under the used culture conditions is 20 hours.
For testing of the sensitivity of cell lines to studied helquats XTT cytotoxicity/proliferation assay for determination of cell viability was used. This method is based on the ability of metabolically active cells to reduce the yellow tetrazolium salt XTT to orange formazan. The rate of conversion is measured as the increase in absorbance at 492 nm and is proportional to the enzymatic activity of mitochondrial dehydrogenases and thus the number of metabolically active (viable) cells. The output is the IC50 value corresponding to the concentration of the test substance that causes a decrease in the number of viable cells by half (i.e. 50% slowdown of cell division) relative to the control, untreated population. Thus it reflects the effectiveness of the test substance towards the tested cell line.
Cells in exponential growth phase were plated into 96-well microtiter plate at a concentration of 3000 cells per well. Each well contained 90 μl of cell suspension. The following day, 10 μl of 10× concentrated test substances was added. Effect of helquats has been studied in the concentration range 1-100 μmol·l^−1 (or 1, 2.5, 5, 7.5, 10; 15; 25; 50 and 100 μmol·l^−1). In addition to the part of the plate containing the mentioned dilutions of test compounds there were always two control columns present, first column with medium alone (i.e. blank) and the second column with the cells in medium without test compounds (control). Into the blank and control wells the same volume of solvent (water) as the volume of the substances was added. After 72 hours of treatment with substances the measurement of viability was performed according to the manufacturer instructions. Briefly, into each well of a 96-well microtiter plate 50 μl of the prepared working solution of XTT (detection reagent) was added and then the microtiter plate was returned to the CO2 incubator. After 2 hours, the absorbance of each well at 492 nm (reference wavelength 690 nm) was measured using a multifunctional microplate reader (Tecan Genios, Austria).
The results of determination of the viability of cancer and normal cells after treatment with different concentrations of test substances are summarized in Table 9. […] Each concentration of a helquat was tested in triplicates within one IC50 value determination. Each of these IC50 value determinations was repeated in at least three independent experiments. Values above 100 μmol·l^−1 were obtained by extrapolation of data measured in the concentration range 0-100 μmol·l^−1 of helquats.

HUVEC = assay: XTT cytotoxicity/proliferation assay, HUVEC; assay type: cell-based, human
Method: To assess the antiproliferative effects of the tested substances in vitro, tumor cell line CCRF-CEM derived from acute lymphoblastic leukemia and normal (healthy) HUVEC endothelial cells from umbilical vein were used. Both of these cell lines were cultured under optimal conditions for their growth in the appropriate medium in plastic bottles or plastic Petri dishes of various sizes (TPP, BD Biosciences) at 37° C., 5% CO2 and 95% humidity. HUVEC cells were purchased from BD Biosciences. CCRF-CEM cell line was obtained from ATCC/LGC Standards (American Type Cell Collection). Normal human endothelial cells from the umbilical vein are adherent cells, which were grown in plastic Petri dishes coated with collagen I. The culture medium (E-STIMTM; BD Biosciences, cat. […] Then, 5 ml of complete culture media E-STIM™ was added and the cells were centrifuged (180×g, 7 minutes), resuspended and transferred in a desired amount in a new Petri dish with fresh medium. In the experiments cells between passages 3 and 8 (after thawing) were used. Population doubling time of HUVEC cells under the used culture conditions is 38 hours. For testing of the sensitivity of cell lines to studied helquats XTT cytotoxicity/proliferation assay for determination of cell viability was used. This method is based on the ability of metabolically active cells to reduce the yellow tetrazolium salt XTT to orange formazan. The rate of conversion is measured as the increase in absorbance at 492 nm and is proportional to the enzymatic activity of mitochondrial dehydrogenases and thus the number of metabolically active (viable) cells. […] Thus it reflects the effectiveness of the test substance towards the tested cell line. Cells in exponential growth phase were plated into 96-well microtiter plate at a concentration of 3000 cells per well. Each well contained 90 μl of cell suspension. The following day, 10 μl of 10× concentrated test substances was added. […] In addition to the part of the plate containing the mentioned dilutions of test compounds there were always two control columns present, first column with medium alone (i.e. blank) and the second column with the cells in medium without test compounds (control). Into the blank and control wells the same volume of solvent (water) as the volume of the substances was added. After 72 hours of treatment with substances the measurement of viability was performed according to the manufacturer instructions. Briefly, into each well of a 96-well microtiter plate 50 μl of the prepared working solution of XTT (detection reagent) was added and then the microtiter plate was returned to the CO2 incubator. After 2 hours, the absorbance of each well at 492 nm (reference wavelength 690 nm) was measured using a multifunctional microplate reader (Tecan Genios, Austria).

[2] = helquat 50 μmol · l^−1, HGC-27, firefly normalized to Renilla, 24 hours after transfection
[3] = Homo sapiens, CCRF-CEM, 72 hours of treatment, read-out: IC50 CCRF CEM
[4] = Homo sapiens, CCRF-CEM, 72 hours, summary of table 9, read-out: concentrations toxic towards CCRF-CEM cells
[5] = Homo sapiens, HUVEC, 72 hours of treatment, values above 100 μmol·l^−1 obtained by extrapolation, read-out: IC50 HUVEC
[6] = Homo sapiens, HUVEC, 72 hours, summary of table 9, read-out: concentrations non-toxic towards HUVEC cells

Cn1c(/C=C/c2cc3ccccc3[n+]3c2-c2c(ccc4c2-c2cccc[n+]2CCC4)CCC3)cc2ccccc21 [MSC-C10-10, 19-((E)-2-(1-methyl-1H-indol-2-yl)vinyl)-6,7,8,11,12,13-hexahydropyrido[1′″,2′″:1″,2″]azepino[4″,3″:5′,6′]benzo[1′,2′:3,4]azepino[1,2-a]quinoline-5,14-diium trifluoromethanesulfonate]
inhibition at 50 µM [1]: > 10% | activity at 50 µM [1, 2]: 85% | pIC50 (CCRF-CEM; [3]): 4.60 to 4.96 | pIC50 (CCRF-CEM; [4]): > 4.60 | pIC50 (HUVEC; [5]): ≤ 4.00 | pIC50 (HUVEC; [6]): < 4.00

Cc1[nH]c2ccccc2c1/C=C/c1cc2ccccc2[n+]2c1-c1c(ccc3c1-c1cccc[n+]1CCC3)CCC2.O=S(=O)([O-])C(F)(F)F.O=S(=O)([O-])C(F)(F)F [MSC-C10-11, 19-((E)-2-(2-methyl-1H-indol-3-yl)vinyl)-6,7,8,11,12,13-hexahydropyrido[1′″,2″:1″,2″]azepino[4″,3″:5′,6′]benzo[1′,2′:3,4]azepino[1,2-a]quinoline-5,14-diium trifluoromethanesulfonate]
luciferase expression relative to control (control = 100%) [1, 2]: 74% | pIC50 (CCRF-CEM; 72 hours of treatment, read-out: IC50 CCRF CEM): 4.60 to 4.96 | pIC50 (HUVEC; 72 hours of treatment, values above 100 μmol·l^−1 obtained by extrapolation, read-out: IC50 HUVEC): ≤ 4.00

C(=C\c1c[nH]c2c1ccc1ccccc12)/c1cc2ccccc2[n+]2c1-c1c(ccc3c1-c1cccc[n+]1CCC3)CCC2 [MSC-C13-16, 19-((E)-2-(1H-benzo[g]indol-3-yl)vinyl)-6,7,8,11,12,13-hexahydropyrido[1′″,2′″:1″,2″]azepino[4″,3″:5′,6′]benzo[1′,2′:3,4]azepino[1,2-a]quinoline-5,14-diium trifluoromethanesulfonate]
inhibition at 50 µM [1]: > 10% | activity at 50 µM [1, 2]: 85% | pIC50 (CCRF-CEM; [3]): ≥ 5.00 | pIC50 (CCRF-CEM; [4]): > 4.60 | pIC50 (HUVEC; [5]): ≤ 4.00 | pIC50 (HUVEC; [6]): < 4.00

Cc1c(C)c2c(c3c1CC[n+]1ccc4ccccc4c1-3)-c1cccc(/C=C/c3ccc(-c4ccc(-c5cccs5)s4)s3)[n+]1CC2.O=S(=O)([O-])C(F)(F)F.O=S(=O)([O-])C(F)(F)F [VDJA-C13-6, (E)-11-(2-([2,2′;5′,2″-terthiophen]-5-yl)vinyl)-6,7-dimethyl-4,5,8,9-tetrahydroisoquinolino[1,2-a]pyrido[1,2-k][2,9]phenanthroline-3,10-diium trifluoromethanesulfonate]
Quantification of expression relative to control (%) ([1]; 10 μmol · l^−1): 59.0 ± 17.9% | Quantification of expression relative to control (%) ([1]; 50 μmol · l^−1): 27.1 ± 0.8% | Quantification of expression relative to control (%) ([1]; 150 μmol · l^−1): 15.3 ± 2.9% | activity at 50 µM [1, 2]: 27% | pIC50 (CCRF-CEM; [3]): 4.60 to 4.96 | pIC50 (HUVEC; [5]): ≤ 4.29
